According to publication PMC11436758, “Computer-aided drug design to generate a unique antibiotic family” (Nature Communications, 2024):
pIC50: −log10 of the molar value. “And” between values parts separate entries of the source, which are not always exact repeats. Equal entries are not always repeated.

Biological target: T1, wild-type AcpS (Escherichia coli, UniProt P24224)
T1 construct: 6x-His (C); made in house
Assay: Inhibition of purified wild-type AcpS by DNM0547
Assay type: biochemical, E. coli
Conditions: for AcpS rate nM/min, Mean / AcpS rate: Suppl Fig 3, [AcpS_WT] 5 nM; for AcpS rate: replicates

T1 sequence (P24224 whole entry): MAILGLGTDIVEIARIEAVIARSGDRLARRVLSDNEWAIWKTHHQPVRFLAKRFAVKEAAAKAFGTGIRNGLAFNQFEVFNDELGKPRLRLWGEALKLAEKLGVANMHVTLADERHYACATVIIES

## CC(C)c1cc(Cl)ccc1-c1cc(-c2nnn[nH]2)c(-c2ccc(Cl)cc2C(C)C)s1 [DNM0547]
  pIC50: 5.29
Drug Conc 1 uM
  AcpS rate nM/min, Mean: 40.51 nM/min
  AcpS rate: 41.16 nM/min and 37.27 nM/min and 43.10 nM/min
Drug Conc 2 uM
  AcpS rate nM/min, Mean: 36.72 nM/min
  AcpS rate: 35.90 nM/min and 37.65 nM/min and 36.61 nM/min
Drug Conc 4 uM
  AcpS rate nM/min, Mean: 24.24 nM/min
  AcpS rate: 27.20 nM/min and 22.45 nM/min and 23.08 nM/min
Drug Conc 8 uM
  AcpS rate nM/min, Mean: 14.81 nM/min
  AcpS rate: 14.57 nM/min and 15.17 nM/min and 14.69 nM/min
Drug Conc 16 uM
  AcpS rate nM/min, Mean: 6.58 nM/min
  AcpS rate: 5.73 nM/min and 8.26 nM/min and 5.76 nM/min
Drug Conc 32 uM
  AcpS rate nM/min, Mean: 2.47 nM/min
  AcpS rate: 2.50 nM/min and 2.59 nM/min and 2.33 nM/min
Drug Conc 64 uM
  AcpS rate nM/min, Mean: 1.94 nM/min
  AcpS rate: 1.85 nM/min and 1.95 nM/min and 2.00 nM/min
Drug Conc 128 uM
  AcpS rate nM/min, Mean: 1.59 nM/min
  AcpS rate: 1.43 nM/min and 1.51 nM/min and 1.82 nM/min
read-out: % of untreated, Suppl Fig 3, [AcpS_WT] 5 nM, Drug Conc 1 uM, replicates
  remaining activity at 1 µM: 99.1%
read-out: % of untreated, Suppl Fig 3, [AcpS_WT] 5 nM, Drug Conc 2 uM, replicates
  remaining activity at 2 µM: 86.4%
read-out: % of untreated, Suppl Fig 3, [AcpS_WT] 5 nM, Drug Conc 4 uM, replicates
  remaining activity at 4 µM: 65.5%
read-out: % of untreated, Suppl Fig 3, [AcpS_WT] 5 nM, Drug Conc 8 uM, replicates
  remaining activity at 8 µM: 35.1%
read-out: % of untreated, Suppl Fig 3, [AcpS_WT] 5 nM, Drug Conc 16 uM, replicates
  remaining activity at 16 µM: 13.8%
read-out: % of untreated, Suppl Fig 3, [AcpS_WT] 5 nM, Drug Conc 32 uM, replicates
  remaining activity at 32 µM: 6.02%
read-out: % of untreated, Suppl Fig 3, [AcpS_WT] 5 nM, Drug Conc 64 uM, replicates
  remaining activity at 64 µM: 4.46%
read-out: % of untreated, Suppl Fig 3, [AcpS_WT] 5 nM, Drug Conc 128 uM, replicates
  remaining activity at 128 µM: 3.45%
